Results reported in PMC7343282, “Tissue Distribution of Several Series of Cationic Surfactants in Rainbow Trout (Oncorhynchus mykiss) Following Exposure via Water” (Environmental Science & Technology, 2020).

Legend:
[1] = ref Timmer and Droge (2017); cited from earlier work
[2] = test system: rainbow trout (Oncorhynchus mykiss); test: Tissue concentrations in rainbow trout after 7 d exposure via water (two mixtures); type: in vivo
Experimental: (§1) The study was conducted with rainbow trout (Oncorhynchus mykiss) weighing between 98 and 165 g. The fish were purchased from Nordic trout Sweden AB and held in the aquaria facility prior to the experiment in February 2018. Ethical approval for the experiments was obtained from Stockholms djurförsöksetiska nämnd (decision 9967-2017). The experiments were conducted in 300 L fiberglass aquaria with a water renewal rate of 1.3 L min^–1 (MIX 1) and 1.45 L min^–1 (MIX 2). The water temperature was 10 °C and the pH 7.5. The water hardness was estimated to be 1.1 mM Ca^2+ based on information from the water supplier. The aquaria water was circulated through a filter of polyester wool at 800–1200 L h^–1 with an Eheim 2273 Pro 4+ pump. The outflow from the filter pump was placed above the water surface, providing for aeration. The lighting was dim and programmed on a 12 h light/12 h dark cycle. The fish were fed fish food pellets supplied by the fish farm at 1.0% of their body weight per day.
(§2) A solution of the test chemical mixture in methanol was infused continuously (3.5 and 3.8 μL min^–1 for MIX 1 and MIX 2, respectively) into the water inflow using a syringe pump. The intended concentrations of the chemicals in water ranged from 2.5 to 50 μg L^–1 (Table 1). They were selected with the help of modeled estimates of the BCF that were based on reported and extrapolated membrane water partition coefficients[7] and biotransformation rate constants predicted with quantitative structure activity relationships (QSARs)[24],[25] to parameterize the BIONIC model.[26] Based on these estimates, we selected an exposure concentration which would result in concentrations in fish that were clearly above the limit of quantification (LOQ) of the analytical method, while trying to keep the quantifiable exposure concentration as low as possible to minimize the risk of toxic effects and micelle formation (see comparison of intended concentrations with available toxicological data in Table S4).
(§3) The surface of the fish posterior of the gills was rinsed with 100% methanol to remove test chemical residues adsorbed to the outer surface of the skin and absorbed in the skin mucus. […] The fish were dissected and the liver, the kidney, the gills, and the remaining contents of the abdominal cavity were taken and weighed. Skin and muscle samples were prepared from the upper dorsal region on semi-frozen fish after the methanol rinse had removed the mucus. The main part of the subcutaneous fat tissue was included in the muscle samples rather than in the skin samples. All samples were stored frozen at −20 °C until further analysis.
(§4) For 6 fish from each aquarium and 3 control fish, samples of muscle, skin, liver, and gills were homogenized in a bullet blender (muscle and liver) (MiniG, SPEXsamplePrep) or in a cryo-mill (skin and gill) (Mixer mill cryomill, Retsch GmbH). A sub-sample of 0.5–1.2 g of the homogenate was extracted twice in methanol (4 mL, 50 °C, ultra-sound, 60 min), employing centrifugation at 4000 rpm for phase separation. Further information on the extraction efficiency of this method can be found in the Supporting Information (Table S5 and accompanying text). Isotope labeled standards of Q10 (D21), Q14 (D29), and P16 (D33) were added to a portion of the extract corresponding to 12–75 mg of the sample. The extract volume was adjusted to 3 mL with methanol and then cleaned up on a weak cationic exchange SPE column (WCX, 60 mg, 30 μm particle size, waters). Solvent elution was performed by gravity flow. The column was conditioned with 2 mL of methanol, followed by 2 mL of Milli-Q water adjusted to pH 7 with ammonium hydroxide to activate the ion exchange. The sample extract was loaded onto the column, and it was subsequently rinsed with 20 mL of methanol.

[3] = as above; type: in vivo, Oncorhynchus mykiss; conditions: rainbow trout (Oncorhynchus mykiss), in vivo
Experimental: as §1, §2, §3, §4

[4] = Table S2; cited from earlier work
[5] = test system: rainbow trout (Oncorhynchus mykiss); test: Surface area-normalized mucus-water and gill-water distribution coefficients; conditions: for Gill-water distribution coefficient (DG-W): from average concentrations in gills and water, calculated gill surface; for Mucus-water distribution coefficient (DMuc-W): from average concentrations in mucus and water
Experimental: For each mixture, the syringe pump was started in an aquarium containing no fish. After 16 h, to allow the concentrations to stabilize, 12 rainbow trout were added. After 7 d of exposure, the fish in the exposure aquaria as well as several unexposed (control) fish were sacrificed. Following stunning, blood was collected with a heparinized syringe from the caudal vein into a 2 mL Eppendorf tube. The fish were weighed and photographed, and the length was measured. The outer surface area of the fish was estimated from the fish weight according to O’Shea et al.[27] [drawing 1] 1
The gill surface area was estimated from the fish weight according to the equation specific for O. mykiss from a report by Hughes,[28] taken from ref ([29]) [drawing 2] 2
Because the mass of extracted mucus was not determined, the concentrations in mucus were normalized to the estimated fish’s total surface area (eq 1) excluding the head, which was not rinsed.
Surface area-normalized gill–water distribution coefficients (DG–W) were calculated from the average concentrations measured in gills and water, and a calculated gill surface based on rainbow trout specific scaling factors (eq 2). […] Unlike the skin, the gills were not rinsed with methanol, so the gill samples included gill mucus.

[6] = test system: rainbow trout (Oncorhynchus mykiss); test: Apparent bioconcentration factor at end of 7-day exposure; type: in vivo
Experimental: Apparent BCFs (BCFapp) at the end of the 7-day exposure were calculated by dividing the surfactant body burden (including mucus) by the fish mass, and dividing this by the average measured concentration in water samples taken during the exposure phase. The BCFapp values ranged from 0.1 to 1260 (Table S18). Given the short exposure period, it is possible that the fish in this study had not approached steady state, in particular with respect to the distribution between water and internal tissues and between water and skin, and that the steady-state BCFs are higher. […] We note that some improvements in the methodology would be helpful, particularly with respect to the stability of the aqueous exposure concentration of the longest chain surfactants. Working with mixtures of analogue cationic surfactants allowed for consistent evaluation of differences in accumulation trends due to structural features.

[7] = Membrane-water partition/distribution coefficient; conditions: extrapolated from data of Timmer and Droge (2017)
[8] = rainbow trout (Oncorhynchus mykiss), in vivo, 7 d
[9] = rainbow trout (Oncorhynchus mykiss), in vivo, 7 d, pH 7.5
[10] = end of 7-day exposure, body burden including mucus
[11] = mean of exposed fish, Table S13
[12] = wet weight, mean of six fish (RSD %), 7 d exposure, Q10, Q14 below LOQ

CCCCCCCCCN [P9, Nonylamine]
Log KMW,C (membrane-water partition coefficient of the charged form) [1]: 3.72 | Concentration in gills [2, 8]: 1200 (12) ng g^–1 | Concentration in liver [2, 8]: 1710 (40) ng g^–1 | Concentration in skin [2, 8]: 132 (36) ng g^–1 | Concentration in blood [2, 9]: 46 (29) ng g^–1 | Concentration in muscle [2, 9]: 27 (39) ng g^–1 | Concentration in skin, per surface area [2, 9]: 11.6 ng cm-2 | concentration at 7 d ([3]; pH 7.5, Concentration in gills): 1040 ng/g | concentration at 7 d ([3]; pH 7.5, Concentration in skin): 70 ng/g | pKa [4]: 10.5 | Gill-water distribution coefficient (DG-W) [5]: 0.44 mLcm-2 | Mucus-water distribution coefficient (DMuc-W) [5]: 0.47 mL cm-2 | Apparent bioconcentration factor (BCFapp) [6, 10]: 3.3 L kg-1 wet weight

CCCCCCCCCCCCN [P12, Dodecylamine]
Log KMW,C (membrane-water partition coefficient of the charged form) [1]: 5.58 | Concentration in gills [2, 8]: 20 000 (10) ng g^–1 | Concentration in liver [2, 8]: 42 000 (15) ng g^–1 | Concentration in skin [2, 8]: 3900 (25) ng g^–1 | Concentration in blood [2, 9]: 770 (26) ng g^–1 | Concentration in muscle [2, 9]: 630 (28) ng g^–1 | Concentration in skin, per surface area [2, 9]: 310 ng cm-2 | concentration at 7 d ([3]; Concentration in skin): 4630 ng/g | concentration at 7 d ([3]; pH 7.5, Concentration in blood): 558 ng/g | concentration at 7 d ([3]; pH 7.5, Concentration in gills): 18500 ng/g | concentration at 7 d ([3]; pH 7.5, Concentration in liver): 35600 ng/g | concentration at 7 d ([3]; pH 7.5, Concentration in skin): 2720 ng/g | pKa [4]: 10.5 | Gill-water distribution coefficient (DG-W) [5]: 28 mLcm-2 | Mucus-water distribution coefficient (DMuc-W) [5]: 16.3 mL cm-2 | Apparent bioconcentration factor (BCFapp) [6, 9]: 230 L kg-1 wet weight

CCCCCCCCCCCCCCCCN [P16, hexadecylamine]
Concentration in gills [2, 8]: 8700 (15) ng g^–1 | Concentration in liver [2, 8]: 5500 (10) ng g^–1 | Concentration in skin [2, 8]: 420 (25) ng g^–1 | Concentration in blood [2, 9]: 130 (19) ng g^–1 | Concentration in muscle [2, 9]: 111 (22) ng g^–1 | Concentration in skin, per surface area [2, 9]: 30 ng cm-2 | concentration at 7 d ([3]; Concentration in skin): 415 ng/g | concentration at 7 d ([3]; pH 7.5, Concentration in blood): 119 ng/g | concentration at 7 d ([3]; pH 7.5, Concentration in gills): 7960 ng/g | concentration at 7 d ([3]; pH 7.5, Concentration in liver): 5450 ng/g | concentration at 7 d ([3]; pH 7.5, Concentration in muscle): 90 ng/g | concentration at 7 d ([3]; pH 7.5, Concentration in skin): 364 ng/g | Log KMW,C (membrane-water partition coefficient of the charged form), extrapolated [7]: 7.90 | pKa [4]: 10.5

CCCCCCCCCN(C)C [T9, N,N-dimethylnonylamine]
Log KMW,C (membrane-water partition coefficient of the charged form) [1]: 3.07 | Concentration in blood ([2]; exposed fish #1): 305 ng/g | Concentration in gills ([2]; exposed fish #1): 1126 ng/g | Concentration in gills, surface area-normalized ([2]; exposed fish #1): 15.7 ng cm-2 | Concentration in liver ([2]; exposed fish #1): 3588 ng/g | Concentration in mucus ([2]; exposed fish #1): 19 ng cm-2 | Concentration in muscle ([2]; exposed fish #1): 173 ng/g | Concentration in skin, per surface area ([2]; exposed fish #1): 48 ng cm-2 | Concentration in blood ([2]; exposed fish #2): 334 ng/g | Concentration in gills ([2]; exposed fish #2): 1320 ng/g | Concentration in gills, surface area-normalized ([2]; exposed fish #2): 17.4 ng cm-2 | Concentration in liver ([2]; exposed fish #2): 2592 ng/g | Concentration in mucus ([2]; exposed fish #2): 17 ng cm-2 | Concentration in muscle ([2]; exposed fish #2): 173 ng/g | Concentration in skin, per surface area ([2]; exposed fish #2): 32 ng cm-2 | Concentration in blood ([2]; exposed fish #3): 475 ng/g | Concentration in gills ([2]; exposed fish #3): 1432 ng/g | Concentration in liver ([2]; exposed fish #3): 2863 ng/g | Concentration in mucus ([2]; exposed fish #3): 15 ng cm-2 | Concentration in muscle ([2]; exposed fish #3): 200 ng/g | Concentration in skin, per surface area ([2]; exposed fish #3): 28 ng cm-2 | Concentration in blood ([2]; exposed fish #4): 251 ng/g | Concentration in gills ([2]; exposed fish #4): 1130 ng/g | Concentration in gills, surface area-normalized ([2]; exposed fish #4): 17.5 ng cm-2 | Concentration in liver ([2]; exposed fish #4): 1593 ng/g | Concentration in mucus ([2]; exposed fish #4): 18 ng cm-2 | Concentration in muscle ([2]; exposed fish #4): 146 ng/g | Concentration in skin, per surface area ([2]; exposed fish #4): 32 ng cm-2 | Concentration in blood ([2]; exposed fish #5): 323 ng/g | Concentration in gills ([2]; exposed fish #5): 1240 ng/g | Concentration in gills, surface area-normalized ([2]; exposed fish #5): 17.6 ng cm-2 | Concentration in liver ([2]; exposed fish #5): 5463 ng/g | Concentration in mucus ([2]; exposed fish #5): 12 ng cm-2 | Concentration in muscle ([2]; exposed fish #5): 158 ng/g | Concentration in skin, per surface area ([2]; exposed fish #5): 28 ng cm-2 | Concentration in blood ([2]; exposed fish #6): 291 ng/g | Concentration in gills ([2]; exposed fish #6): 869 ng/g | Concentration in gills, surface area-normalized ([2]; exposed fish #6): 11.3 ng cm-2 | Concentration in liver ([2]; exposed fish #6): 7230 ng/g | Concentration in mucus ([2]; exposed fish #6): 9 ng cm-2 | Concentration in muscle ([2]; exposed fish #6): 111 ng/g | Concentration in skin, per surface area ([2]; exposed fish #6): 19 ng cm-2 | Concentration in blood ([2]; mean of exposed fish, Table S10): 330 ng/g | Concentration in muscle ([2]; mean of exposed fish, Table S11): 160 ng/g | Concentration in liver ([2]; mean of exposed fish, Table S12): 3887 ng/g | Concentration in gills [2, 11]: 1186 ng/g | Concentration in gills, surface area-normalized [2, 11]: 15.9 ng cm-2 | Concentration in skin, per surface area ([2]; mean of exposed fish, Table S14): 31 ng cm-2 | Concentration in mucus ([2]; mean of exposed fish, Table S15): 15 ng cm-2 | Concentration in mucus ([2]; methanol rinse normalized to fish surface area, mean of six fish (RSD %)): 15 (24) ng cm^–2 | Concentration in gills ([2]; wet weight, mean of fish (RSD %), 7 d exposure): 1190 (16) ng g^–1 | Concentration in blood ([2]; wet weight, mean of six fish (RSD % in brackets), 7 d exposure, Q10 below LOQ): 330 (23) ng g^–1 | Concentration in liver [2, 12]: 3900 (49) ng g^–1 | Concentration in muscle [2, 12]: 160 (19) ng g^–1 | Concentration in skin [2, 12]: 390 (40) ng g^–1 | pKa [4]: 9.5 | Gill-water distribution coefficient (DG-W) [5]: 0.30 mLcm-2 | Mucus-water distribution coefficient (DMuc-W) [5]: 0.29 mL cm-2 | Apparent bioconcentration factor (BCFapp) [6, 10]: 5.4 L kg-1 wet weight
